Data set [1] has as its system Arabidopsis thaliana (Col-0). The data set can be described thus: Measurement of amount of endogenous jasmonic acid production (LC-MS/MS). The class given is in vivo. The note with it: 50 μM, 24 h in the light, vs DMSO negative control; FIG. 1 (*p<0.05; **p<0.01). On the procedure: Arabidopsis thaliana (Col-0) seeds were sown on a transparent 96-well plate, and soaked in a 1/2 MS medium (150 μL). The seeds were left for 2-3 days in a cool and dark place, and then left to grow under long-day treatment conditions for 9-10 days. Thereafter, the medium was replaced with a 1/2 MS medium (100 μL) containing each (50 μM) of compounds E1, E2, and E3, and comparative compounds C1 and C2, vacuum treatment was applied for 10 min, and the seeds were left in the light for 24 h. About 20 to 60 mg of the plantlets (about 3 individuals) and 2 beads for crushing were placed in a tube, and immediately frozen with liquid nitrogen and stored at −80° C. In addition, for a negative control, DMSO was added instead of each of compounds E1, E2, and E3, and comparative compounds C1 and C2.
The frozen sample was crushed using a bead-type homogenizer (Bead Smash 12; WakenBtech Co., Ltd.) under conditions of 3,000 rpm for 60 sec, and then 1 mL of an aqueous solution of 70% methanol plus 1% acetic acid and 10 ng of d2-JA (internal standard) were added. The mixture was mixed thoroughly by vortexing. This solution was centrifuged at 10,000 rpm for 5 min and the supernatant was collected. The same process was repeated two more times without the addition of the internal standard, and a total of 3 mL of an extract was collected.
The solutions were then applied to a Sep-Pak (registered trademark) Vac 3cc (500 mg) C18 Cartridge (Waters) in the following order of 1. to 6.
1. acetonitrile (one column volume, about 3 mL) 2. 100% methanol (one column volume) 3. distilled water (one column volume) 4. aqueous solution of 70% methanol+1% acetic acid (two column volumes) 5. sample supernatant (total amount) 6. aqueous solution of 70% methanol+1% acetic acid (one column volume) […]
Then, the amount of endogenous jasmonic acid (JA) production was determined by LC-MS/MS. […]

For data set [2], the system named is PDF1.2 gene. Put plainly: Measurement of expression level of PDF1.2 gene (1), real-time PCR. The class given is in vivo, Arabidopsis thaliana. The note with it: 24 h, relative expression (ΔΔCt, EF1-α reference). The method, then:
Arabidopsis thaliana (Col-0) seeds were sown on a transparent 96-well plate, and soaked in a 1/2 MS medium (150 μL). The seeds were left for 2-3 days in a cool and dark place, and then left to grow under long-day treatment conditions for 9-10 days. Thereafter, the medium was replaced with a 1/2 MS medium (100 μL) containing compound E1 (25 μM) or compound E2 (50 μM), vacuum treatment was applied for 10 min, and the seeds were left in the light for 24 h. About 20 to 60 mg of the plantlets (about 3 individuals) and 2 beads for crushing were placed in a tube, and immediately frozen with liquid nitrogen and stored at −80° C. In addition, for a negative control, DMSO was added instead of each of compounds E1 and E2. […] The concentration of the total RNA obtained was measured, and the total RNA was mixed with RNAse-free H2O to 1/12 μg/μL (6 μL H2O for 0.5 μg of the total RNA), and the mixture was placed in a PCR tube, incubated at 65° C. for 5 min, and then quenched on ice. […] Then, CFX Connect Real-Time PCR Detection System (Bio-Rad) was used to quantitatively determine the expression level of PDF1.2 gene. […] For quantification, the ΔΔCt method was used, and this value was expressed as the relative expression level. […]
A general note: Real-time PCR tracks product formation cycle by cycle.

For data set [3], the system named is PDF1.2 gene. Put plainly: Measurement of expression level of PDF1.2 gene (2), real-time PCR. The class given is in vivo, Arabidopsis thaliana. The note with it: 50 μM, 48 h; FIG. 3. The method, then: (§1) Arabidopsis thaliana (Col-0) seeds were sown on a transparent 96-well plate, and soaked in a 1/2 MS medium (150 μL). The seeds were left for 2-3 days in a cool and dark place, and then left to grow under long-day treatment conditions for 10 days. Thereafter, the medium was replaced with a 1/2 MS medium (100 μL) containing compound E1 (50 μM), compound E4 (50 μM), or compound E5 (50 μM), and comparative compounds C1 and C2, vacuum treatment was applied for 10 min, and the seeds were left in the light for 48 h. Eight individual plantlets and 2 beads for crushing were placed in a tube, and immediately frozen with liquid nitrogen and stored at −80° C. In addition, for a negative control, DMSO was added instead of each of compounds E1, E4, and E5. Then, similarly to Test Example 2, RNA was extracted from the frozen sample, and the expression level of the PDF1.2 gene was quantitatively determined by reverse transcription real-time PCR.

For data set [4], the system named is PDF1.2 gene. The data set can be described thus: Measurement of expression level of PDF1.2 gene (3), real-time PCR. The class given is in vivo, Arabidopsis thaliana. The following applies: 50 μM, 48 h; FIG. 4. The method, then: as §1, with “3-7” for “2-3”, “μM),” for “μM), compound E4 (50 μM),”, “E6” for “E5”, “E1” for “E1, E4,”, “E6.” for “E5.”
In a further data set the test system is MRC-5 cells. Put plainly: Study on cytotoxicity, WST-8 method. The class given is cell-based, human. The note with it: 50 μM, cultured 2 days, FIG. 5. The method, then: Normal fibroblasts MRC-5 from human fetal lung were seeded in a 96-well plate at a cell density of 5,000 cells/well, and cultured for 1 day under conditions of 37° C. and 5% CO2. After the culturing, compound E1 was added to the medium at varying concentrations, and the cells were cultured for another 2 days. Then, the number of viable cells was determined using the WST-8 method, and the viability of the MRC-5 cells was calculated. In addition, for a control, SN-38, an active metabolite of the anticancer drug irinotecan, was added instead of compound E1.

Molecules are shown by their SMILES.

As to `COc1ccc(Oc2cccc(F)c2C#N)cc1` [compound E1], the “amount of endogenous jasmonic acid production” value (“amount” below) in data set [1] is on record as “significantly increased”. The “expression level of PDF1.2 gene” value in the data set on PDF1.2 gene [2] (25 μM, FIG. 2A) was “markedly enhanced”; in the data set on PDF1.2 gene [3], “markedly enhanced”; in the data set on PDF1.2 gene [4], “markedly enhanced”. In addition, the “viability of the MRC-5 cells” value in the data set with MRC-5 cells is “exceeds 60%”. Turning to `N#Cc1c(Cl)cccc1Oc1ccc(-c2nnco2)cc1` [compound E2], the “amount” value in data set [1] is listed as “significantly increased”. In the data set on PDF1.2 gene [2] (50 μM, FIG. 2B), the “expression level of PDF1.2 gene” value is “markedly enhanced”.

As for `N#Cc1c(F)cccc1Oc1ccccc1` [compound E3], in data set [1], the “amount” value is given as “significantly increased”. Consider `COc1ccc(Oc2cccc(Cl)c2C#N)cc1` [compound E4], for which the “expression level of PDF1.2 gene” value in the data set with PDF1.2 gene [3] is reported as “markedly enhanced”. The same measure, in the same setting: under `COc1ccc(Oc2cccc(Br)c2C#N)cc1` [compound E5] stands “markedly enhanced”. Regarding `CC(C)Oc1ccc(Oc2cccc(F)c2C#N)cc1` [compound E6], the “expression level of PDF1.2 gene” value with PDF1.2 gene [4] is recorded as “markedly enhanced”.

The record behind these values is patent publication US20220022395A1, “JASMONIC ACID ENDOGENY PROMOTING AGENT, AND METHOD FOR PROMOTING JASMONIC ACID ENDOGENY” (Tokyo University of Science Foundation, priority 2018, published 2022).
